Key:
α2-GABAA receptor = α2-GABAA receptor (Rattus norvegicus, UniProt P18508+P23576); experiment: Ligand-binding assay, radiolabeled flumazenil competition, rat spinal cord membranes; settings: for inhibition at 10 µM: read-out: % Inhibition (10^−5 M), affinity for α2-GABAA receptor; for inhibition at 0.1 µM: read-out: % Inhibition (10^−7 M), affinity for α2-GABAA receptor
Description: Determination of the affinity of test compounds for α1- and α2-GABAA receptor.
Male Sprague-Dawley rats weighing 200-250 g at the time of experiment were used. After decapitation of the animal, the cerebellum (tissue that mostly contains α1-GABAA receptor) and spinal cord (tissue that mostly contains α2-GABAA receptor) were removed. The membranes were prepared according to the method by J. Lameh et al. (Prog. Neuro-Psychopharmacol. Biol. Psychiatry, 24, 979-991, 2000). Once the tissues weighed, they were suspended in 50 mM Tris.HCl (pH 7.7), 1:40 (v/v), homogenized and then centrifuged at 20000 g for 10 min at 7° C. The resulting pellet was resuspended under the same conditions and centrifuged again. The pellet was finally resuspended on a minimum volume and kept at −80° C. overnight. On the next day, the process was repeated until the final pellet was resuspended at a ratio of 1:10 (v/v).
Affinity was determined by competitive tests using radiolabeled flumazenil as ligand. The tests were performed according to the methods described by S. Arbilla et al. (Eur. J. Pharmacol., 130, 257-263, 1986); and Y. Wu et al. (Eur. J. Pharmacol., 278, 125-132, 1995). The membranes containing the study receptors, flumazenil (radiolabeling at a final concentration of 1 nM) and ascending concentrations of test compounds (in a total volume of 500 μl in […] [ph 7.4] Tris.HCl buffer) were incubated. Simultaneously, the membranes were only incubated with the radiolabeled flumazenil (total binding, 100%) and in the presence of an elevated concentration of unradiolabeled flumazenil (non-specific binding, % estimation of radiolabeled ligand). The reactions started on adding the radiolabeled ligand followed by incubation for 60 minutes at 0° C. At the end of the incubation period, the tubes were filtered using a Brandel Mod. M-48R harvester and then washed three times with cold test buffer. The harvester was fitted with a GF/B filter that retained the membranes containing the receptors and the radiolabeled ligand which had been bound to the receptors. Then the filters were removed and left till dry. Once dried, the filters were cut, placed in vials with scintillation liquid and left under stirring overnight. The next day the filters were counted using a Packard Mod. Tricarb scintillation counter.
X: amount of bound ligand for every concentration of compound.
T: total binding, maximum amount bound to the radiolabeled ligand.
N: non-specific binding, amount of radiolabeled ligand bound in a non-specific way irrespective of the receptor used.
Every concentrations of compound were tested in duplicate and their mean values were used to determine the experimental values of % specific binding versus the concentration of compound. […] Inhibition constants (Ki) were calculated from the IC50 values according to Cheng-Prusoff's formula (Y. Cheng y W. H. Prusoff, Biochem. Pharmacol., 22(23), 3099-3108, 1973).

male CD1 mice = experiment: Predictive sedation-hypnosis test in mice (motor activity, crossings); assay type: in vivo; settings: single equimolecular intraperitoneal dose, crossings over 30 min after dosing (first 5 min discarded) versus control
Description: • In vivo determination of predictive sedative-hypnotic action.
The in vivo effects of these compounds were assessed by a predictive sedation-hypnosis test in mice (D. J. Sanger et al., Eur. J. Pharmacol., 313, 35-42, 1996; and G. Griebel et al., Psychopharmacology, 146, 205-213, 1999). Groups of 5-8 male CD1 mice, weighing 22-26 g at the time of test, were used. The test compounds were administered in single equimolecular intraperitoneal doses, suspended in 0.25% agar with one drop of Tween in a volume of 10 ml/kg. Control animals received the vehicle alone. Using an Actisystem DAS16 (Panlab, S. L., Spain) the crossings (number of counts) were recorded for each mouse at 5-min intervals during a period of 30 minutes after dosing. The inhibition percentage of crossings of treated animals versus control animals (the first 5 min were discarded) was calculated.

| Structure (SMILES) | inhibition at 10 µM (α2-GABAA receptor) | inhibition at 0.1 µM (α2-GABAA receptor) | % Motor Activity Inhibition (male CD1 mice) |
| --- | --- | --- | --- |
| N#Cc1cnn2c(-c3cccc(N4CCCS4(=O)=O)c3)ccnc12 [Example 33, 7-(3-(2-isothiazolidinyl-1,1-dioxide)-phenyl)-3-cyano-pyrazolo[1,5-a]pyrimidine] | 45.2% | 0% | 77.58% |
| CN(c1cccc(-c2ccnc3c(C(=O)c4ccc(F)cc4)cnn23)c1)S(C)(=O)=O [Example 51, N-methyl-N-{3-[3-(fluorobenzene-4-carbonyl)-pyrazolo[1,5-a]pyrimidin-7-yl]-phenyl}-methanesulfonamide] | 94.7% | 16.8% | 90.04% |
| Cc1ccc(C(=O)c2cnn3c(-c4cccc(N(C)S(C)(=O)=O)c4)ccnc23)cc1 [Example 63, N-methyl-N-{3-[3-(4-methylbenzoyl)-pyrazolo[1,5-a]pyrimidin-7-yl]-phenyl}-methanesulfonamide] | 91.3% | 0% | 95.32% |
| CN(c1cccc(-c2ccnc3c(C(=O)c4ccccn4)cnn23)c1)S(C)(=O)=O [Example 39, N-methyl-N-{3-[3-(pyridin-2-carbonyl)-pyrazolo[1,5-a]pyrimidin-7-yl]-phenyl}-methanesulfonamide] | 96.6% | 23.3% | 95.28% |
| CCN(c1cccc(-c2ccnc3c(C(=O)c4cccs4)cnn23)c1)S(=O)(=O)CC [Example 18, N-ethyl-N-{3-[3-(thiophene-2-carbonyl)-pyrazolo[1,5-a]pyrimidin-7-yl]-phenyl}-ethanesulfonamide] | 93.7% | 20.7% | 93.39% |
| C#CCN(c1cccc(-c2ccnc3c(C(=O)c4ccc(C)cc4)cnn23)c1)S(C)(=O)=O [Example 68, N-2-propynyl-N-{3-[3-(4-methylbenzoyl)-pyrazolo[1,5-a]pyrimidin-7-yl]-phenyl}-methanesulfonamide] | 92.7% | 31.6% | 87.78% |
| C#CCN(c1cccc(-c2ccnc3c(C(=O)c4cccs4)cnn23)c1)S(=O)(=O)C(C)C [Example 19, N-2-propynyl-N-{3-[3-(thiophene-2-carbonyl)-pyrazolo[1,5-a]pyrimidin-7-yl]-phenyl}-2-propanesulfonamide] | 94.4% | 45.2% | 89.88% |
| CCN(c1cccc(-c2ccnc3c(C(=O)c4ccncc4)cnn23)c1)S(C)(=O)=O [Example 46, N-ethyl-N-{3-[3-(pyridin-4-carbonyl)-pyrazolo[1,5-a]pyrimidin-7-yl]-phenyl}-methanesulfonamide] | 97.6% | 11.9% | 93.98% |
| CN(c1cccc(-c2ccnc3c(C(=O)c4cccs4)cnn23)c1)S(=O)(=O)c1cccc(Cl)c1 [Example 78, N-methyl-N-{3-[3-(thiophene-2-carbonyl)-pyrazolo[1,5-a]pyrimidin-7-yl]-phenyl}-3-chlorobenzenesulfonamide] | 36.2% | 0% | 36.12% |
| CCN(c1cccc(-c2ccnc3c(C(=O)c4ccccn4)cnn23)c1)S(C)(=O)=O [Example 40, N-ethyl-N-{3-[3-(pyridin-2-carbonyl)-pyrazolo[1,5-a]pyrimidin-7-yl]-phenyl}-methanesulfonamide] | 99.5% | 47.3% | 94.32% |
| CCCN(c1cccc(-c2ccnc3c(C(=O)c4cccs4)cnn23)c1)S(=O)(=O)C(C)C [Example 25, N-propyl-N-{3-[3-(thiophene-2-carbonyl)-pyrazolo[1,5-a]pyrimidin-7-yl]-phenyl}-2-propane-sulfonamide] | 78.9% | 9.1% | 92.79% |
| CCCN(c1cccc(-c2ccnc3c(C(=O)c4cccs4)cnn23)c1)S(=O)(=O)CC [Example 17, N-propyl-N-{3-[3-(thiophene-2-carbonyl)-pyrazolo[1,5-a]pyrimidin-7-yl]-phenyl}-ethanesulfonamide] | 74.5% | 0% | 94.21% |
| CN(c1cccc(-c2ccnc3c(C(=O)c4cccs4)cnn23)c1)S(=O)(=O)C1CC1 [Example 92, N-methyl-N-{3-[3-(thiophene-2-carbonyl)-pyrazolo[1,5-a]pyrimidin-7-yl]-phenyl}-cyclopropyl-sulfonamide] | 95.7% | 36.5% | 74.36% |
| CCN(c1cccc(-c2ccnc3c(C(=O)c4ccccc4)cnn23)c1)S(C)(=O)=O [Example 70, N-ethyl-N-{3-[3-(benzoyl)-pyrazolo[1,5-a]pyrimidin-7-yl]-phenyl}-methanesulfonamide] | 99.9% | 63.4% | 94.54% |
| CCN(C(C)=O)c1cccc(-c2ccnc3c(C#N)cnn23)c1 [Zaleplon, reference compound] |  |  | 47.17% |
| CCN(c1cccc(-c2ccnc3c(C(=O)c4cccs4)cnn23)c1)S(C)(=O)=O [Example 6, N-ethyl-N-{3-[3-(thiophene-2-carbonyl)-pyrazolo[1,5-a]pyrimidin-7-yl]-phenyl}-methanesulfonamide] |  |  | 66.55% |
| CN(c1cccc(-c2ccnc3c(C(=O)c4cccs4)cnn23)c1)S(=O)(=O)c1cccs1 [Example 87, N-methyl-N-{3-[3-(thiophene-2-carbonyl)-pyrazolo[1,5-a]pyrimidin-7-yl]-phenyl}-2-thiophene-sulfonamide] | 97.6% | 65.1% | 74.88% |
| CCN(c1cccc(-c2ccnc3c(C#N)cnn23)c1)S(=O)(=O)CC [Example 29, N-[3-(3-cyano-pyrazolo[1,5-a]pyrimidin-7-yl)-phenyl]-N-ethyl-ethanesulfonamide] | 92.7% | 13.4% | 93.73% |
| CC(C)S(=O)(=O)N(C)c1cccc(-c2ccnc3c(C#N)cnn23)c1 [Example 34, N-[3-(3-cyano-pyrazolo[1,5-a]pyrimidin-7-yl)-phenyl]-N-methyl-2-propanesulfonamide] | 87.6% | 6.9% | 92.58% |
| CCS(=O)(=O)N(C)c1cccc(-c2ccnc3c(C(=O)c4cccs4)cnn23)c1 [Example 20, N-methyl-N-{3-[3-(thiophene-2-carbonyl)-pyrazolo[1,5-a]pyrimidin-7-yl]-phenyl}-ethanesulfonamide] | 97.7% | 40.3% | 95.23% |
| CCN(c1cccc(-c2ccnc3c(C#N)cnn23)c1)S(=O)(=O)C(C)C [Example 35, N-[3-(3-cyano-pyrazolo[1,5-a]pyrimidin-7-yl)-phenyl]-N-ethyl-2-propanesulfonamide] | 86.5% | 24.5% | 92.55% |
| CCN(c1cccc(-c2ccnc3c(C#N)cnn23)c1)S(C)(=O)=O [Example 5, N-[3-(3-cyano-pyrazolo[1,5-a]pyrimidin-7-yl)-phenyl]-N-ethyl-methanesulfonamide] |  |  | 80.91% |
| C#CCN(c1cccc(-c2ccnc3c(C(=O)c4cccs4)cnn23)c1)S(C)(=O)=O [Example 16, N-2-propynyl-N-{3-[3-(thiophene-2-carbonyl)-pyrazolo[1,5-a]pyrimidin-7-yl]-phenyl}-methanesulfonamide] |  |  | 95.36% |

— US7947688B2, “N-[3-(3-substituted-pyrazolo[1,5-a]pyrimidin-7-yl)phenyl]-sulfonamides, and compositions, and methods related thereto” (Ferrer Internacional, S.A., priority 2003, dated 2011)
